The values that follow come from PMC10743929, “Amphiphilic Sialic Acid Derivatives as Potential Dual-Specific Inhibitors of Influenza Hemagglutinin and Neuraminidase” (International Journal of Molecular Sciences, 2023).

“Also recorded” adds a separate entry of the source. Where two headings read alike, the source gives them in different places. Marks after values point to notes of the source that are not given here.

One series relates to IBV. The series can be described thus: CPE reduction assay, influenza B in MDCK cells. Conditions: Influenza B virus, 72 h. It is filed as cell-based, influenza B virus (B/Ned/537/05). The protocol:
(§1) The process of CPE reduction assay for the influenza virus was described previously. The virus strains were A/Virginia/ATCC3/2009, A/PR/8 (A/H1N1), A/Victoria/361/11, A/HK/7/87 (A/H3N2), and B/Ned/537/05 (IBV). On day 0, Madin-Darby canine kidney (MDCK) cells in 96-well plates were infected with influenza virus at a multiplicity of infection (MOI) of 0.0004 plaque forming units (PFU) per cell, and that was incubated at 35 °C for 3 days. After the third day, virus-induced CPE and compound cytotoxicity were scored by microscopy, and the data were confirmed by formazan-based MTS cell viability assay (CellTiter 96® AQueous One Solution Cell Proliferation Assay from Promega, Madison, WI, USA). […] Compound cytotoxicity was expressed as the concentration of the compound causing minimal changes in cell morphology (MCC) and 50% cytotoxic concentration (CC50) based on the MTS assay.

A further series in a line: in vitro. Conditions: dog.
The next series has as its system IAV (A/H1N1). Nature of the series: CPE reduction assay, influenza A/H1N1 in MDCK cells. It is filed as cell-based, influenza A virus A/H1N1 (A/Virginia/ATCC3/2009 or A/PR/8). Particulars: Influenza A virus, H1N1, 72 h. The protocol:
as §1

Series [1] relates to Madin-Darby canine kidney (MDCK) cells. The series can be described thus: Compound cytotoxicity in MDCK cells (microscopy, MTS). Particulars: microscopically visible alterations in cell morphology.
For a further series, the system named is IAV (A/H3N2). Nature of the series: CPE reduction assay, influenza A/H3N2 in MDCK cells. Particulars: Influenza A virus, H3N2, 72 h. Format: cell-based, influenza A virus A/H3N2 (A/Victoria/361/11 or A/HK/7/87). The procedure:
as §1

A further series deals with hemagglutinin. Conditions: cited from earlier work.
For a further series, the system named is viral neuraminidase. Conditions: cited from earlier work.
In a further series the test system is influenza A strains. Nature of the series: Anti-influenza activity against influenza A strains (H1N1 and H3N2) in MDCK cells. Format: cell-based, influenza A virus (H1N1 and H3N2 types). The protocol:
as §1

A short description of series [2]: Dynamic light scattering of aggregates. Conditions: RSD of 3 measurements in brackets.
Series [3] has as its system Madin-Darby canine kidney (MDCK) cells. Conditions: dog, 3 days.
The next series has as its target H1N1 Hemagglutinin (Influenza A virus, UniProt P03452). The series can be described thus: SPR affinity toward immobilized H1N1 hemagglutinin. It is filed as binding, influenza type H1N1 (A/Puerto Rico/8/34). Conditions: for Kd: KD(app). The procedure:
(§2) SPR experiments were conducted using a BIAcore S200 instrument (Cytiva, Marlborough, MA, USA) employing a CM5 chip with a carboxymethyldextran surface (Cytiva, USA). Hemagglutinins (ThermoFisher Scientific, Invitrogen, Waltham, MA, USA) from influenza type H3N2 (A/Aichi/2/1968) and H1N1 (A/Puerto Rico/8/34), as well as neuraminidase (Invitrogen, USA) from H1N1 (A/California/04/2009), were immobilized on the chip surface following the standard amine coupling procedure outlined in the manufacturer’s instructions. This immobilization process was performed at a flow rate of 10 μL/min using PBST as the running buffer. The chip surface was initially activated using an N-ethyl-N-(3-dimethylaminopropyl)carbodiimide/N-hydroxysuccinimide solution. Subsequently, 50 μg/mL solutions of individual proteins in 10 mM sodium acetate, pH 5, were injected into channels 2, 3, and 4, respectively. To block any unreacted groups, all channels were treated with 1 M ethanolamine, resulting in a final response of 4500 RU for HAs and 2700 RU for neuraminidase. Channel 1 was activated and blocked in the same manner, without the injection of any protein, serving as a blank.
(§3) Tested compounds in a PBST working buffer (20 mM Na-phosphate, 150 mM NaCl, pH 7.4, 0.005% Tween 20, 5% DMSO) were injected into the chip at a flow rate of 30 μL/min at 25 °C. The injection duration was 3 min, followed by a 10 min buffer flow to facilitate spontaneous dissociation. Each compound was injected as a two-fold dilution series within a concentration range of 0.78–800 μM (2.44–2500 μM for sialic acid). After each compound concentration series, five buffer injections were performed to ensure complete dissociation. To determine the apparent KD toward the immobilized proteins, the steady-state responses of the blank-subtracted curves from each replicate were fitted using a single-site binding model.
(§4) In experiments conducted in a DMSO-free buffer (20 mM Na-phosphate, 150 mM NaCl, pH 7.4, 0.005% Tween 20), each replicate was followed by a two-fold dilution series of DMSO, matching the DMSO concentration in the compound solutions. In this case, the steady-state response of the blank-subtracted curve was corrected by the corresponding blank-subtracted DMSO steady-state response. The final values from each replicate were fitted using a single-site binding model using Origin 7 (OriginLab Corporation, Northampton, MA, USA).
(§5) For all experiments, the final KD(app) and Rmax values, along with their standard deviations, were obtained through statistical analysis based on three replicates.

The next series concerns the target H1N1 Neuraminidase (Influenza A virus, UniProt C3W5S3). Nature of the series: SPR affinity toward immobilized H1N1 neuraminidase. Format: binding, influenza H1N1 (A/California/04/2009). Conditions: PBST with 5% DMSO, 25 °C. The procedure: as §2, §3, §5
Another series has as its target H3N2 Hemagglutinin (Influenza A virus, UniProt P03437). Nature of the series: SPR affinity toward immobilized H3N2 hemagglutinin. Conditions: for Kd: KD(app). Format: binding, influenza type H3N2 (A/Aichi/2/1968). The protocol: as §2, §3, §4, §5
Where [4] appears, read: MTS cell viability assay, day 3, read-out: Antiviral EC50, IBV, MTS.
Setting [5] is: microscopic scoring of cytopathic effect, day 3, read-out: Antiviral EC50, IBV, CPE.
[6] abbreviates: MTS cell viability assay, day 3, read-out: Antiviral EC50, IAV (A/H1N1), MTS.
Setting [7] is: microscopic scoring of cytopathic effect, day 3, read-out: Antiviral EC50, IAV (A/H1N1), CPE.
The mark [8] stands for this setting: MTS cell viability assay, day 3, read-out: Antiviral EC50, IAV (A/H3N2), MTS.
The mark [9] stands for this setting: microscopic scoring of cytopathic effect, day 3, read-out: Antiviral EC50, IAV (A/H3N2), CPE.

Sequence of H1N1 Hemagglutinin (P03452 18-565): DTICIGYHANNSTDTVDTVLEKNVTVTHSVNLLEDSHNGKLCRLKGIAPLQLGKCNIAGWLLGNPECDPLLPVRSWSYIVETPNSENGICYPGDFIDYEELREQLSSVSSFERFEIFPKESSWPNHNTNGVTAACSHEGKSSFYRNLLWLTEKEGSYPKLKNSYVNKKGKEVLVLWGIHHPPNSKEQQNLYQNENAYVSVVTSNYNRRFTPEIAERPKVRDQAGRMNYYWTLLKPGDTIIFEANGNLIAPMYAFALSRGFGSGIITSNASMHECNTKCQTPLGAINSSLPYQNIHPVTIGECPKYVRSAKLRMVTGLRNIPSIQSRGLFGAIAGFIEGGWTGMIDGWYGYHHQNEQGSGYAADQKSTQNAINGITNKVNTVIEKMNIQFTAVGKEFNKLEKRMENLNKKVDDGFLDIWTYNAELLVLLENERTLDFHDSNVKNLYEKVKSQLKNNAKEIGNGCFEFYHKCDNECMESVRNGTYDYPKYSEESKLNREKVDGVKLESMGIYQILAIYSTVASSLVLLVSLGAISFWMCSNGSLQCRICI

For the compound `CC(=O)N[C@H]1[C@H]([C@H](O)[C@H](O)CO)OC(C(=O)O)=C[C@@H]1N=C(N)N` [Zanamivir, reference compound], the EC50 in the series with IBV (setting [4]) stood at 4.5 µM; in the series on IBV (setting [5]) it was 2.1 µM; with IAV (A/H1N1) (setting [6]), 8.5 ± 3.4 µM; in the series on IAV (A/H1N1) (setting [7]), 10 ± 3 µM; in the series with IAV (A/H3N2) (setting [8]), 1 µM; with IAV (A/H3N2) (setting [9]), 1.6 µM. In the series “in vitro”, this compound yielded a CC50 of more than 100 µM. Also, in series [1], the “Cytotoxicity MCC (minimum cytotoxic concentration)” value is more than 100 µM.
In the case of `CC(=O)NC1C(OC(=O)CNS(=O)(=O)c2cccc3c(N(C)C)cccc23)CC(OCCCCCCC(=O)NCc2cccc3ccccc23)(C(=O)O)OC1C(O)C(O)CO` (stereo not shown) [Compound 2], the “affinity for hemagglutinin (in words)” value in the series with hemagglutinin is recorded as “high affinity”. Further, the “substrate for viral neuraminidase (in words)” value in the series with viral neuraminidase was “not a substrate”.
As to `CCCCCCCCOC1C(OC)OC(COCCOCCOCCOCCn2cc(CSC3(C(=O)O)CC(O)C(NC(C)=O)C(C(O)C(O)CO)O3)nn2)C(OCc2ccc(OC)cc2)C1OCCCCCCCC` (stereo not shown) [Compound 12b], in the series on influenza A strains (MDCK cells, H1N1 and H3N2), the “activity against influenza A strains (in words)” value is on record as “effective; also recorded: moderate effect”. For the same compound, the “ratio of CC50 to EC50 (selectivity)” value in the series on influenza A strains (both determined by MTS assay, at best) is recorded as not above 4 factor. Further, the “d (average diameter of particles, DLS)” value is listed as 108 (13.4%) ^a nm in series [2] (0.1 mg/mL (diluted with water), 25 °C) and 96 (1.19%) ^a nm in [2] (1 mg/mL in water/DMSO 9:1, 25 °C). Moreover, the EC50 with IBV (setting [4]) was more than 100 µM; with IBV (setting [5]), more than 100 µM; in the series with IAV (A/H1N1) (setting [6]), 15 ± 5 µM; in the series with IAV (A/H1N1) (setting [7]), 8.9 µM; in the series on IAV (A/H3N2) (setting [8]), 8.7 ± 3.6 µM; in the series on IAV (A/H3N2) (setting [9]), 8.9 µM. Also, the CC50 in “in vitro” was determined as 34 ± 13 µM. Also, the “Cytotoxicity MCC (minimum cytotoxic concentration)” value in series [3] was 39 ± 20 µM. In addition, at H1N1 Hemagglutinin (DMSO-free running buffer), the “Rmax, H1N1 hemagglutinin, absence of DMSO” value was determined as 305 ± 30 RU. The Kd at H1N1 Hemagglutinin (H1N1 Hemagglutinin, PBST with 5% DMSO, 25 °C, steady-state single-site fit) was determined as 161 ± 20 µM; at H1N1 Hemagglutinin (H1N1 hemagglutinin, absence of DMSO, DMSO-free running buffer), 187 ± 41 µM; on H3N2 Hemagglutinin (H3N2 Hemagglutinin, PBST with 5% DMSO, 25 °C, steady-state single-site fit), 124 ± 21 µM; on H3N2 Hemagglutinin (H3N2 hemagglutinin, absence of DMSO, DMSO-free running buffer), 279 ± 98 µM. Moreover, the “Rmax, H1N1 Hemagglutinin” value at H1N1 Hemagglutinin (PBST with 5% DMSO, 25 °C) worked out at 130 ± 12 RU. Further, the “Rmax, H1N1 Neuraminidase” value on H1N1 Neuraminidase turned out to be 175 ± 23 RU. The “Rmax, H3N2 hemagglutinin, absence of DMSO” value on H3N2 Hemagglutinin (DMSO-free running buffer) is given as 454 ± 39 RU. At H3N2 Hemagglutinin (PBST with 5% DMSO, 25 °C), the “Rmax, H3N2 Hemagglutinin” value turned out to be 135 ± 11 RU.
